Measured values from patent US8952024B2, “Herbicidal pyrimidone derivatives” (E I du Pont de Nemours and Company, priority 2009, dated 2015).

What was measured:
Type in all cases: in vivo
rice (Oryza sativa) = assay: Test B flooded paddy test; details: for Plant response rating, Rice: Flood (flooded paddy test), 13 to 15 days
Excerpt: (§1) Plant species in the flooded paddy test consisted of rice (Oryza sativa), umbrella sedge (Cyperus difformis), ducksalad (Heteranthera limosa) and barnyardgrass (Echinochloa crus-galli) grown to the 2-leaf stage for testing. At the time of treatment, test pots were flooded with water to 3 cm above the soil surface, treated by application of test compounds directly to the paddy water, and then maintained at that water depth for the duration of the test.
(§2) Treated plants and controls were maintained in a greenhouse for 13 to 15 days, after which time all treated plants were visually evaluated and compared to controls. Plant response ratings, summarized in Table B, are based on a scale of 0 to 100 where 0 is no effect and 100 is complete control. A dash (-) response means no test result.

[1] = test system: umbrella sedge (Cyperus difformis); assay: Test B flooded paddy test; details: for Plant response rating, Sedge, Umbrella: Flood (flooded paddy test), 13 to 15 days
Excerpt: as §1, §2

[2] = test system: ducksalad (Heteranthera limosa); assay: Test B flooded paddy test; details: for Plant response rating, Ducksalad: Flood (flooded paddy test), 13 to 15 days
Excerpt: as §1, §2

[3] = test system: barnyardgrass (Echinochloa crus-galli); assay: Test B flooded paddy test; details: for Plant response rating, Barnyardgrass: Flood (flooded paddy test), 13 to 15 days
Excerpt: as §1, §2

[4] = test system: giant foxtail (Setaria faberii); assay: Test A pre-/postemergence plant response
Excerpt: (§3) Seeds of barnyardgrass (Echinochloa crus-galli), large crabgrass (Digitaria sanguinalis), giant foxtail (Setaria faberii), morningglory (Ipomoea spp.), pigweed (Amaranthus retroflexus), velvetleaf (Abutilon theophrasti), wheat (Triticum aestivum) and corn (Zea mays) were planted into a blend of loam soil and sand and treated preemergence with a directed soil spray using test chemicals formulated in a non-phytotoxic solvent mixture which included a surfactant. At the same time these species were also treated with postemergence applications of test compounds formulated in the same manner.
(§4) Plants ranged in height from two to ten cm and were in the one- to two-leaf stage for the postemergence treatment. Treated plants and untreated controls were maintained in a greenhouse for approximately ten days, after which time all treated plants were compared to untreated controls and visually evaluated for injury. Plant response ratings, summarized in Table A, are based on a 0 to 100 scale where 0 is no effect and 100 is complete control. A dash (-) response means no test result.

[5] = test system: pigweed (Amaranthus retroflexus); assay: Test A pre-/postemergence plant response
Excerpt: as §3, §4

[6] = test system: morningglory (Ipomoea spp.); assay: Test A pre-/postemergence plant response
Excerpt: as §3, §4

[7] = test system: large crabgrass (Digitaria sanguinalis); assay: Test A pre-/postemergence plant response; details: for Crabgrass, Large plant response rating: visual injury, 0 to 100 scale (0 no effect, 100 complete control), approx. ten days
Excerpt: as §3, §4

[8] = test system: wheat (Triticum aestivum); assay: Test A pre-/postemergence plant response
Excerpt: as §3, §4

corn (Zea mays) = assay: Test A pre-/postemergence plant response; details: for Corn plant response rating: visual injury, 0 to 100 scale (0 no effect, 100 complete control), approx. ten days
Excerpt: as §3, §4

[9] = test system: barnyardgrass (Echinochloa crus-galli); assay: Test A pre-/postemergence plant response; details: for Barnyardgrass plant response rating: visual injury, 0 to 100 scale (0 no effect, 100 complete control), approx. ten days
Excerpt: as §3, §4

[10] = test system: velvetleaf (Abutilon theophrasti); assay: Test A pre-/postemergence plant response
Excerpt: as §3, §4

[11] = 250 g ai/ha, flooded paddy test, visual rating on 0 to 100 scale (0 no effect, 100 complete control) after 13 to 15 days
[12] = 62 g ai/ha, scale of 0 to 100 where 0 is no effect and 100 is complete control
[13] = Postemergence, 125 g ai/ha, visual injury, 0 to 100 scale (0 no effect, 100 complete control), approx. ten days
[14] = Postemergence, 500 g ai/ha, visual injury, 0 to 100 scale (0 no effect, 100 complete control), approx. ten days
[15] = Preemergence, 125 g ai/ha, 0 to 100 scale where 0 is no effect and 100 is complete control, approximately ten days
[16] = Preemergence, 500 g ai/ha, 0 to 100 scale, 0 = no effect, 100 = complete control
[17] = Postemergence, 125 g ai/ha, 0 to 100 scale where 0 is no effect and 100 is complete control
[18] = 125 g ai/ha, scale 0 to 100, 0 is no effect, 100 is complete control
[19] = Flood, 31 g ai/ha, scale 0 to 100 (0 no effect, 100 complete control)
[20] = Preemergence, 125 g ai/ha, 0 to 100 scale, 0 = no effect, 100 = complete control

O=C(C1=C(O)C2CCC(C2)C1=O)c1cnc(-c2cccc(Br)c2)n(C2CCCCC2)c1=O (centres unmarked) [Compound 252]
30: Plant response rating, Crabgrass, Large [7, 17]
50: Plant response rating, Velvetleaf [10, 16]
0: Plant response rating, Flood, Rice (rice (Oryza sativa); [11]) | Plant response rating, Rice (rice (Oryza sativa); [12]) | Plant response rating, Flood, Sedge, Umbrella [1, 11] | Plant response rating, Sedge, Umbrella [1, 12] | Plant response rating, Flood, Ducksalad [2, 11] | Plant response rating, Ducksalad [2, 12] | Plant response rating, Flood, Barnyardgrass [3, 11] | Plant response rating, Barnyardgrass [3, 12] | Plant response rating, Foxtail, Giant [4, 15] | Plant response rating, Pigweed [5, 15] | Plant response rating, Morningglory [6, 15] | Plant response rating, Wheat [8, 13] | Plant response rating, Wheat [8, 15] | Plant response rating, Wheat [8, 16] | Plant response rating, Corn (corn (Zea mays); [17]) | Plant response rating, Corn (corn (Zea mays); [15]) | Plant response rating, Corn (corn (Zea mays); [16]) | Plant response rating, Barnyardgrass [9, 15] | Plant response rating, Barnyardgrass [9, 16]
40: Plant response rating, Foxtail, Giant [4, 13] | Plant response rating, Pigweed [5, 16]
60: Foxtail, Giant plant response rating [4, 14] | Crabgrass, Large plant response rating ([7]; Postemergence, 500 g ai/ha)
20: Plant response rating, Crabgrass, Large [7, 16] | Plant response rating, Velvetleaf [10, 15]
10: Plant response rating, Foxtail, Giant [4, 16] | Plant response rating, Morningglory [6, 16] | Plant response rating, Crabgrass, Large [7, 15] | Wheat plant response rating [8, 14] | Corn plant response rating (corn (Zea mays); Postemergence, 500 g ai/ha)
90: Pigweed plant response rating [5, 14] | Barnyardgrass plant response rating ([9]; Postemergence, 500 g ai/ha) | Velvetleaf plant response rating [10, 14]
70: Plant response rating, Pigweed [5, 13] | Plant response rating, Velvetleaf [10, 13]
80: Plant response rating, Morningglory [6, 13] | Plant response rating, Barnyardgrass [9, 17]
100: Morningglory plant response rating [6, 14]

COCCOCCn1c(-c2cc(F)cc(F)c2)ncc(C(=O)C2=C(O)CCCC2=O)c1=O [Compound 171]
70: Sedge, Umbrella plant response rating [1, 19] | Plant response rating, Ducksalad [2, 18] | Plant response rating, Crabgrass, Large [7, 20] | Plant response rating, Barnyardgrass [9, 16]
40: Ducksalad plant response rating [2, 19] | Plant response rating, Wheat [8, 16] | Corn plant response rating (corn (Zea mays); Postemergence, 500 g ai/ha)
80: Plant response rating, Sedge, Umbrella [1, 18] | Plant response rating, Foxtail, Giant [4, 16] | Plant response rating, Pigweed [5, 16] | Plant response rating, Velvetleaf [10, 20]
30: Plant response rating, Foxtail, Giant [4, 20] | Plant response rating, Corn (corn (Zea mays); [17])
0: Plant response rating, Rice (rice (Oryza sativa); [18]) | Rice plant response rating (rice (Oryza sativa); [19]) | Barnyardgrass plant response rating [3, 19] | Plant response rating, Morningglory [6, 20] | Plant response rating, Corn (corn (Zea mays); [20])
100: Plant response rating, Pigweed [5, 17] | Pigweed plant response rating [5, 14] | Plant response rating, Morningglory [6, 17] | Morningglory plant response rating [6, 14] | Plant response rating, Crabgrass, Large [7, 16] | Plant response rating, Velvetleaf [10, 17] | Velvetleaf plant response rating [10, 14] | Plant response rating, Velvetleaf [10, 16]
50: Plant response rating, Pigweed [5, 20] | Wheat plant response rating [8, 14] | Plant response rating, Barnyardgrass [9, 17]
60: Plant response rating, Foxtail, Giant [4, 17] | Plant response rating, Morningglory [6, 16] | Plant response rating, Crabgrass, Large [7, 17]
90: Foxtail, Giant plant response rating [4, 14] | Crabgrass, Large plant response rating ([7]; Postemergence, 500 g ai/ha) | Barnyardgrass plant response rating ([9]; Postemergence, 500 g ai/ha)
20: Plant response rating, Barnyardgrass [3, 18] | Plant response rating, Wheat [8, 17] | Plant response rating, Wheat [8, 20] | Plant response rating, Corn (corn (Zea mays); [16]) | Plant response rating, Barnyardgrass [9, 20]
